Experimental data taken from PMC6480306 (General and comparative endocrinology, 2018).

Biological target: T1, zebrafish mPRα (membrane progestin receptor alpha, Paqr7) (Danio rerio, UniProt Q801G2)
T1 sequence (Q801G2 1-354): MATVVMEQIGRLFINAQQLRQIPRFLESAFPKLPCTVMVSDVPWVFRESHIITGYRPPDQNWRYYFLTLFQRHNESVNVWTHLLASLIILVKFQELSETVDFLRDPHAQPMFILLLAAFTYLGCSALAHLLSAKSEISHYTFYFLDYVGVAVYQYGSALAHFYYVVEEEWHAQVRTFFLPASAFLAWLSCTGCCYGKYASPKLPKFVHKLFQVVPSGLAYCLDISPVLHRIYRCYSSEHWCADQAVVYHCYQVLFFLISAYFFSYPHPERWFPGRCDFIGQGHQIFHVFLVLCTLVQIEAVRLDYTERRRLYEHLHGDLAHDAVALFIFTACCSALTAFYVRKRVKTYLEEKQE
Test: [3H]-DHP competitive radioligand binding, filtration assay

SMILES	IC50 [nM]
C=C[C@]12CCC(=O)C=C1CC[C@H]1[C@@H]3CC[C@H](C(C)=O)[C@@]3(C)CC[C@@H]12 [02–0, l0-ethenyl-l9-norprogesterone]	2000
C[C@@H](O)[C@@]1(O)CC[C@H]2[C@@H]3CCC4=CC(=O)CC[C@]4(C)[C@H]3CC[C@@]21C [DHP, 17, 20β-dihydroxy-4-pregnen-3-one]	~100
